Laboratory results: patent publication US8207156B2, “Substituted pyrazoline compounds, their preparation and use as medicaments” (Laboratorios Del Dr. Esteve, S.A., priority 2005, dated 2012)

Tests used:
[1] = target: T1, CB1 receptor; assay: In-vitro determination of affinity to CB1/CB2-receptors (radioligand [3H]-CP55940 binding); settings: binding data per pharmacological methods part I, table does not say whether human transfected receptor or rat cerebellum
T1 construct: IC50 [nM]; radioligand [3H]-CP55940
How it was run: (§1)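 Transfected human CB1/CB2 receptors were tested with [3H]-CP55940. In the modified Govaerts method, rat cerebellum membranes (100 µg protein) were incubated with 1 nM [3H]-CP55940 and compound for 1 h at 30 °C in Tris-HCl/MgCl2/EDTA/0.5% BSA, pH 7.4, with 10 µM HU-210 defining non-specific binding. Filter-bound radioactivity was counted in triplicate and analysed by non-linear regression.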

[2] = target: recombinant human cannabinoid 1 receptor (CB1) (Homo sapiens, UniProt P21554); assay: In vitro determination of antagonism to CB1-receptor ([35S]GTPγS binding assay, CHO cell membranes); assay type: biochemical; settings: compound at 1 μM against agonist WIN 55,212-2 (3 nM to 3 μM); effect of Rimonabant (1 μM) defined as 100%
Procedure: Chinese hamster ovary (CHO) cells stably expressing recombinant human cannabinoid 1 receptor (CB1) were cultured in nutrient mixture Ham's F 12 supplemented with 10% heat-inactivated fetal bovine serum, 2 mM L-glutamine, 50 U/ml penicillin, 50 U/ml streptomycin and 0.5 mg/ml geneticin. In order to obtain cells, culture flasks were washed twice with phosphate buffered saline and scraped. Then, cells were collected by centrifugation (200×g, 10 min) and stored dry at −80° C. Cells were homogenized in ice-cold 20 mM HEPES, 10 mM EDTA (pH 7.5) and centrifuged at 40,000×g for 15 min at 4° C. The membrane pellet was resuspended in 20 mM HEPES, 0.1 mM EDTA (pH 7.5) and centrifuged for 15 min at 4° C. The final membrane pellet was resuspended in 20 mM HEPES, 0.1 mM EDTA (pH 7.5), and divided in aliquots and stored at −80° C. until use.
The reaction was performed in 96-well plates. Membranes (15 μg protein/well) were incubated for 60 min at 30° C. in buffer (50 mM HEPES, 100 mM KCl, 5 mM MgCl2,1 mM EDTA, 0.1% wt/vol bovine serum albumin, 5 μM GDP, saponin (10 μg/ml), 0.5 nM [^35S]GTPγS, pH 7.4) with compound at a final concentration of 1 μM in either the absence or presence of agonist WIN 55, 212-2 between 3 nM and 3 μM. The incubation was terminated by rapid filtration through Millipore Multiscreen glass fiber FB, and rinsed two-times with ice-cold assay buffer. Filter plates were dried and 30 μl of scintillation liquid was added. Radioactivity was determined using a Wallac Microbeta Trilux. Each experiment was performed at least in duplicate. A WIN 55, 212-2 dose-response experiment either alone or in the presence of Rimonabant (1 μM) was systematically performed.
The average of basal [^35S]GTPγS binding was subtracted from all binding data. In order to compare the antagonism results from one screening campaign to another one, the difference between the maximal agonist effect of WIN 55, 212-2 alone, and the maximal antagonism effect due to WIN 55, 212-2 plus Rimonabant (1 μM) was defined as 100%.

[3] = target: T2, CB1 receptor (UniProt P20272); assay: In-vitro determination of affinity to CB1/CB2-receptors (radioligand [3H]-CP55940 binding); settings: for Inhibition [%], 10^−7 M: compound at 10^−7 M; for Inhibition [%], 10^−8 M: compound at 10^−8 M
T2 construct: other: compound at 10^−7 M; radioligand [3H]-CP55940; other: compound at 10^−8 M
How it was run: as §1

Sequence of recombinant human cannabinoid 1 receptor (CB1) (P21554 whole entry): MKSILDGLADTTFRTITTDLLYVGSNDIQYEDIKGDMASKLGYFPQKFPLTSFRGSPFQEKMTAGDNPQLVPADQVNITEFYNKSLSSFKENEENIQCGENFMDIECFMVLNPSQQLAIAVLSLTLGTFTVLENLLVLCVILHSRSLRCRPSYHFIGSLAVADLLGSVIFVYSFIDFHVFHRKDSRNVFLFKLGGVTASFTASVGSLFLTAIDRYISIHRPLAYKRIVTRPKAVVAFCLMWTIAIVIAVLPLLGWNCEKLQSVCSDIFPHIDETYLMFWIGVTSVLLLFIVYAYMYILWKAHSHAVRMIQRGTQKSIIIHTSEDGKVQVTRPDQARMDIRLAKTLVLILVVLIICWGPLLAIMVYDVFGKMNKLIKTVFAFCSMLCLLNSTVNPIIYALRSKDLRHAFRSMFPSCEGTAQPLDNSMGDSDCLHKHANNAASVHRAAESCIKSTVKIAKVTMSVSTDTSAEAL

| SMILES | IC50 [1] | Antagonism [%] [2] | Inhibition [%], 10^−7 M [3] | Inhibition [%], 10^−8 M [3] | IC50 ([1]; hydrochloride) |
| --- | --- | --- | --- | --- | --- |
| CC1CCCC(C)N1NC(=O)C1=NN(c2ccc(Cl)cc2Cl)C(c2ccc(Cl)cc2)C1 (stereo not drawn) [Example 12, 5-(4-Chloro-phenyl)-1-(2,4-dichloro-phenyl)-4,5-dihydro-1H-pyrazole-3-carboxylic acid (2,6-dimethyl-piperidin-1-yl)-amide] | 250 nM | 78% |  |  |  |
| CC1CCCCC1NC(=O)C1=NN(c2ccc(Cl)cc2Cl)C(c2ccc(Cl)cc2)C1 (stereo not drawn) [Example 18, 5-(4-Chloro-phenyl)-1-(2,4-dichloro-phenyl)-4,5-dihydro-1H-pyrazole-3-carboxylic acid (2-methyl-cyclohexyl)-amide] | 25.1 nM | 78% |  |  |  |
| O=C(C1=NN(c2ccc(Cl)cc2Cl)C(c2ccc(Cl)cc2)C1)N1CCC2CCCCC2C1 (stereo not drawn) [Example 22, [5-(4-Chloro-phenyl)-1-(2,4-dichloro-phenyl)-4,5-dihydro-1H-pyrazol-3-yl]-(octahydro-isoquinolin-2-yl)-methanone] | 79.4 nM | 62% |  |  |  |
| O=C(NN1CCCCC1)C1=NN(c2ccc(Cl)cc2Cl)C(c2ccc(F)cc2)C1 (stereo not drawn) [Example 23, 1-(2,4-Dichloro-phenyl)-5-(4-fluoro-phenyl)-4,5-dihydro-1H-pyrazole-3-carboxylic acid piperidin-1-ylamide] | 39.8 nM | 91% |  |  |  |
| O=C(NC1CCCC1)C1=NN(c2ccc(Cl)cc2Cl)C(c2ccc(Cl)cc2)C1 (stereo not drawn) [Example 37, 5-(4-Chloro-phenyl)-1-(2,4-dichloro-phenyl)-4,5-dihydro-1H-pyrazole-3-carboxylic acid cyclopentylamide] | 280 nM | 81% |  |  |  |
| CC1CCCC(NC(=O)C2=NN(c3ccc(Cl)cc3Cl)C(c3ccc(Cl)cc3)C2)C1 (stereo not drawn) [Example 57, 5-(4-Chloro-phenyl)-1-(2,4-dichloro-phenyl)-4,5-dihydro-1H-pyrazole-3-carboxylic acid (3-methyl-cyclohexyl)-amide] | 39.8 nM | 81% |  |  |  |
| O=C(NN1CC2CCCC2C1)C1=NN(c2ccc(Cl)cc2Cl)C(c2ccc(Br)cc2)C1 (stereo not drawn) [Example 63, 5-(4-Bromo-phenyl)-1-(2,4-dichloro-phenyl)-4,5-dihydro-1H-pyrazole-3-carboxylic acid (hexahydro-cyclopenta[c]pyrrol-2-yl)-amide] | 25.1 nM | 119% |  |  |  |
| O=C(NN1CCN(C2CCCC2)CC1)C1=NN(c2ccc(Cl)cc2Cl)C(c2ccc(Br)cc2)C1 (stereo not drawn) [Example 64, 5-(4-Bromo-phenyl)-1-(2,4-dichloro-phenyl)-4,5-dihydro-1H-pyrazole-3-carboxylic acid (4-cyclopentyl-piperazin-1-yl)-amide] | 562 nM | 63% |  |  |  |
| Cl.O=C(NN1CCc2ccccc21)C1=NN(c2ccc(Cl)cc2Cl)C(c2ccc(Br)cc2)C1 (stereo not drawn) [Example 66, 5-(4-Bromo-phenyl)-1-(2,4-dichloro-phenyl)-4,5-dihydro-1H-pyrazole-3-carboxylic acid (2,3-dihydro-indol-1-yl)-amide hydrochloride] | 100 nM | 86% |  |  |  |
| O=C(NN1CCCCCC1)C1=NN(c2ccc(Cl)cc2Cl)C(c2ccc(Br)cc2)C1 (stereo not drawn) [Example 68, 5-(4-Bromo-phenyl)-1-(2,4-dichloro-phenyl)-4,5-dihydro-1H-pyrazole-3-carboxylic acid azepan-1-ylamide] | 39.8 nM | 98% |  |  |  |
| O=C(C1=NN(c2ccc(Cl)cc2Cl)C(c2ccc(Cl)cc2)C1)N1CC=CCC1 (stereo not drawn) [Example 74, [5-(4-Chloro-phenyl)-1-(2,4-dichloro-phenyl)-4,5-dihydro-1H-pyrazol-3-yl]-(3,6-dihydro-2H-pyridin-1-yl)-methanone] | 794 nM | 44% |  |  |  |
| O=C(C1=NN(c2ccc(Cl)cc2Cl)C(c2ccc(Cl)cc2)C1)N1C=NCCC1 (stereo not drawn) [Example 75, [5-(4-Chloro-phenyl)-1-(2,4-dichloro-phenyl)-4,5-dihydro-1H-pyrazol-3-yl]-(5,6-dihydro-4H-pyrimidin-1-yl)-methanone] | > 1000 nM | 42% |  |  |  |
| O=C(NC1CCCc2ccccc21)C1=NN(c2ccc(Cl)cc2Cl)C(c2ccc(Cl)cc2)C1 (stereo not drawn) [Example 76, 5-(4-Chloro-phenyl)-1-(2,4-dichloro-phenyl)-4,5-dihydro-1H-pyrazole-3-carboxylic acid (1,2,3,4-tetrahydro-naphthalen-1-yl)-amide] | 398 nM | 57% |  |  |  |
| C[C@@H]1CN(C(=O)C2=NN(c3ccc(Cl)cc3Cl)C(c3ccc(Cl)cc3)C2)C[C@H](C)O1 (stereo partly drawn) [Example 80, [5-(4-Chloro-phenyl)-1-(2,4-dichloro-phenyl)-4,5-dihydro-1H-pyrazol-3-yl]-(2,6-dimethyl-morpholin-4-yl)-methanone] | 501 nM | 56% |  |  |  |
| O=C(C1=NN(c2ccc(Cl)cc2Cl)C(c2ccc(Cl)cc2)C1)N1CCCc2ccccc21 (stereo not drawn) [Example 81, [5-(4-Chloro-phenyl)-1-(2,4-dichloro-phenyl)-4,5-dihydro-1H-pyrazol-3-yl]-(3,4-dihydro-2H-quinolin-1-yl)-methanone] | 708 nM | 20% |  |  |  |
| Cl.O=C(NN1CCCCC1)C1=NN(c2ccc(Cl)cc2Cl)C(c2ccc(F)cc2)C1 (stereo not drawn) [Example 135, 1-(2,4-Dichloro-phenyl)-5-(4-fluoro-phenyl)-4,5-dihydro-1H-pyrazole-3-carboxylic acid piperidin-1-ylamide hydrochloride] |  |  | 78.5% | 40.2% | 83 nM |
| O=C(NN1CCCCCCC1)C1=NN(c2ccc(Cl)cc2Cl)C(c2ccc(Br)cc2)C1 (stereo not drawn) [Example 146, 5-(4-bromo-phenyl)-1-(2,4-dichloro-phenyl)-4,5-dihydro-1H-pyrazole-3-carboxylic acid azocan-1-ylamide] | 12 nM |  | 71.8% | 35.2% |  |
| O=C(NN1CCCCCCC1)C1=NN(c2ccc(Cl)cc2Cl)C(c2ccc(F)cc2)C1 (stereo not drawn) [Example 147, 5-(4-fluoro-phenyl)-1-(2,4-dichloro-phenyl)-4,5-dihydro-1H-pyrazole-3-carboxylic acid azocan-1-ylamide] | 54 nM |  | 63.4% | 24.0% |  |
| O=C(N[C@H]1CCCC[C@@H]1OCc1ccccc1)C1=NN(c2ccc(Cl)cc2Cl)C(c2ccc(Cl)cc2)C1 (stereo partly drawn) [Example 151, N-((1S,2S)-2-(benzyloxy)cyclohexyl)-5-(4-chlorophenyl)-1-(2,4-dichlorophenyl)-4,5-dihydro-1H-pyrazole-3-carboxamide] | 32 nM |  | 82.3% | 67.5% |  |
| O=C(N[C@@H]1CCCC[C@H]1OCc1ccccc1)C1=NN(c2ccc(Cl)cc2Cl)C(c2ccc(Cl)cc2)C1 (stereo partly drawn) [Example 178, N-((1R,2R)-2-(benzyloxy)cyclohexyl)-5-(4-chlorophenyl)-1-(2,4-dichlorophenyl)-4,5-dihydro-1H-pyrazole-3-carboxamide] | 119 nM |  | 58% | 41.2% |  |
| Cl.O=C(NN1CCc2ccccc21)C1=NN(c2ccc(Cl)cc2Cl)[C@@H](c2ccc(Cl)cc2)C1 [Example 181, (R)-5-(4-Chloro-phenyl)-1-(2,4-dichloro-phenyl)-4,5-dihydro-1H-pyrazole-3-carboxylic acid (2,3-dihydro-indol-1-yl)-amide hydrochloride] |  |  | 50.6% | 33.7% | 24 nM |
